Values quoted from earlier work as cited in US20070065511A1, “Controlled delivery creatine formulations and method of using the same” (priority 2004, published 2007).
Where two headings read alike, the source gives them in different places.

Legend:
[1] = tested on: satellite cell (SC)
[2] = ingestion of 20 to 30 g per day for several days

Row | SMILES | SC/fibre, time effect from baseline ([1]; week 4 of supplementation and resistance training) | SC/fibre, time effect from baseline ([1]; week 8 of supplementation and resistance training) | SC/fibre compared to baseline ([1]; week 16) | increase in human skeletal muscle total creatine content [2]
1 | CN(CC(=O)O)C(=N)N [CRE, creatine] | 111% | 93% | no difference | 
2 | CN(CC(=O)O)C(=N)N.O [creatine monohydrate] |  |  |  | greater than 20%
